Drawing on patent US11945798B2, “Substituted aminopyridine compounds as EGFR inhibitors” (YUHAN CORPORATION, priority 2021, dated 2024), this text covers IC50 for 15 compounds.

Like-named read-outs stand apart in the source and are kept apart here.

Experiment [1] has as its target EGFR L858R/T790M/C797S (Homo sapiens, UniProt P00533, C797S/L858R/T790M). Put plainly: Biochemical EGFR kinase assay (Lance Ultra TR-FRET), L858R/T790M/C797S. The procedure:
(§1) Biochemical EGFR kinase assays were conducted using Lance Ultra time-resolved fluorescence resonance energy transfer (TR-FRET) technology from Perkin-Elmer. Compounds of the invention were initially diluted to 20 mM in 100% DMSO for storage and made into kinase buffer solution to create a compound concentration ranging from 0.003 μM and 10 μM.
(§2) Each kinase reactions were incubated at room temperature for 1 hour and then stopped by the addition of 4 μL of stop solution (10 mM EDTA). The specific Europium-labeled-anti-phosphopeptide antibody (PerkinElmer, AD0069) diluted in LANCE detection buffer was then added to a final concentration of 2 nM. After 60 minutes incubation at room temperature the LANCE signal was measured on an EnVision Multilabel Reader (Perkin-Elmer). Excitation wavelength was set at 320 nm and emission monitored at 615 nm (donor) and 665 nm (acceptor). The IC50 values were determined using GraphPad prism software (GraphPad Software, Inc., San Diego, CA, USA).

The target of experiment [2] is EGFR del19/C797S (Homo sapiens, UniProt P00533, C797S/DEL746-750). Kind of experiment: Biochemical EGFR kinase assay (Lance Ultra TR-FRET), del19/C797S. The procedure: as §1, §2
For experiment [3], the target named is EGFR del19/T790M/C797S (Homo sapiens, UniProt P00533, C797S/DEL746-750/T790M). Kind of experiment: Biochemical EGFR kinase assay (Lance Ultra TR-FRET), del19/T790M/C797S. Here is the method:
as §1, §2
In general terms: TR-FRET usually uses a lanthanide donor and a delayed reading to cut background.

Experiment [4] addresses EGFR wildtype (WT) (Homo sapiens, UniProt P00533). Put plainly: Biochemical EGFR kinase assay (Lance Ultra TR-FRET), wildtype. The procedure:
as §1, §2

Setting [5] is: Km ATP, read-out: IC50 L858R/T790M/C797S (nM) Km ATP.
Where [6] appears, read: Km ATP, read-out: IC50 del19/C797S (nM) Km ATP.
Setting [7] is: Km ATP, read-out: IC50 del19/T790M/C797S (nM) Km ATP.
Setting [8] is: Km ATP, read-out: IC50 WT (nM) Km ATP.

EGFR L858R/T790M/C797S, sequence (P00533 25-1210 T790M/C797S/L858R): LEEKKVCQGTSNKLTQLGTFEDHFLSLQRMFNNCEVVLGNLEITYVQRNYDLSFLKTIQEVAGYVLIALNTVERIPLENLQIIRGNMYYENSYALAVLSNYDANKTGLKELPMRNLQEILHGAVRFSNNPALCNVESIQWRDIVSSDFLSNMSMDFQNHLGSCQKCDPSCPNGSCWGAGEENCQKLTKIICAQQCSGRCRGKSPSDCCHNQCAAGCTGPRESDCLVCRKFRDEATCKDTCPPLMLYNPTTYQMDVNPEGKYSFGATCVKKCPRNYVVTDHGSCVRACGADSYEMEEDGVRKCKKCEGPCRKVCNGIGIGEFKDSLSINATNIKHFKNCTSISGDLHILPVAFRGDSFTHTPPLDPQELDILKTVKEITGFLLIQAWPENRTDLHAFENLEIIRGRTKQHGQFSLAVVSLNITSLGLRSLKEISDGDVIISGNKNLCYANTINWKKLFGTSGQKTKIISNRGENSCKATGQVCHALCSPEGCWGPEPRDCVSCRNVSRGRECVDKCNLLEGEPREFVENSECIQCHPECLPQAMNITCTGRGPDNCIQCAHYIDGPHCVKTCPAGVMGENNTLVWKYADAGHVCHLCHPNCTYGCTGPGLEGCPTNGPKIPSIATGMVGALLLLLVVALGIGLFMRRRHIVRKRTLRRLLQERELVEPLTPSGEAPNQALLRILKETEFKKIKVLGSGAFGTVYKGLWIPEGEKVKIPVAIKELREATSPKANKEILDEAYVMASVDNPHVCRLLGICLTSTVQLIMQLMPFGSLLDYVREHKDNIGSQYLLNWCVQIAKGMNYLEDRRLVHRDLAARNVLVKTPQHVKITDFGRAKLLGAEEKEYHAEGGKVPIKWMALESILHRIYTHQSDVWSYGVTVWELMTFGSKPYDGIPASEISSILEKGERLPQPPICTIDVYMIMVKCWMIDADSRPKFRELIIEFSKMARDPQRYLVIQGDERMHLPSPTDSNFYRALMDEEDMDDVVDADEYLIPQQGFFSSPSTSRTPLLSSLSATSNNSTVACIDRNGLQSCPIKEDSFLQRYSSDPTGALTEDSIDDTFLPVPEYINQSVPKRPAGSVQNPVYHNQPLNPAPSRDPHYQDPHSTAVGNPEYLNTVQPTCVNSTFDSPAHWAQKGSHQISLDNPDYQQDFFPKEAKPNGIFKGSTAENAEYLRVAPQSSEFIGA
EGFR wildtype (WT), sequence (P00533 25-1210): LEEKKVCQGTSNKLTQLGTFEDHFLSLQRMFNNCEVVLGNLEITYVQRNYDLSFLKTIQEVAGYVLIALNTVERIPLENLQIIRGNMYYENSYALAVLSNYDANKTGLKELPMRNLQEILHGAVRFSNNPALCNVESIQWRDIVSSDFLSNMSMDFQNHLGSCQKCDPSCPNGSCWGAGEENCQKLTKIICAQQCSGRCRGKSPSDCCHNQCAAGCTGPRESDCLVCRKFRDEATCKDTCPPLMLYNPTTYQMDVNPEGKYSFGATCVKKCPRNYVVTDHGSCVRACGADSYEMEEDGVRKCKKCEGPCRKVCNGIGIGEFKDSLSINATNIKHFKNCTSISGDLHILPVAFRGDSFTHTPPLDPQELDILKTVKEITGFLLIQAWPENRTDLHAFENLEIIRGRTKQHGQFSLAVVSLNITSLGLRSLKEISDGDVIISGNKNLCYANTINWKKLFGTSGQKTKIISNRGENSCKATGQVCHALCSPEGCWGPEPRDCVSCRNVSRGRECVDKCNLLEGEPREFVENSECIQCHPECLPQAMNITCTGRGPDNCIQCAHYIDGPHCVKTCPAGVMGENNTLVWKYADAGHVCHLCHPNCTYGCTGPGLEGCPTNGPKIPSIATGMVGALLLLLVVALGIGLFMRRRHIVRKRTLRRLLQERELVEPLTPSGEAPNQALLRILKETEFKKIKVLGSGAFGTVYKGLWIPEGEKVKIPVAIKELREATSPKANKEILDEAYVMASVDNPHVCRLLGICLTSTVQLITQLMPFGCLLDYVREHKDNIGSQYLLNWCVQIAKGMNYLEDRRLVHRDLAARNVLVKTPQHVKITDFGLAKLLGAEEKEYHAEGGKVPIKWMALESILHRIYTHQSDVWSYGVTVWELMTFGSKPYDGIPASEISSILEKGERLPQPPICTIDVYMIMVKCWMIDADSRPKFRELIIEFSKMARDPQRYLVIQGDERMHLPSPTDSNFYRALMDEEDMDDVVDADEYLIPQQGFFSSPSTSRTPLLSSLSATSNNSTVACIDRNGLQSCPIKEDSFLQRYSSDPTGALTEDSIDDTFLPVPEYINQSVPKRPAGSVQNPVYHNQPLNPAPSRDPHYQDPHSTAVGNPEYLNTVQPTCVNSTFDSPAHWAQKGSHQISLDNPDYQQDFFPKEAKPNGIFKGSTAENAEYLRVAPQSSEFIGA
EGFR del19/C797S, sequence (P00533 with tags, fused parts or gaps DEL746-750/C797S): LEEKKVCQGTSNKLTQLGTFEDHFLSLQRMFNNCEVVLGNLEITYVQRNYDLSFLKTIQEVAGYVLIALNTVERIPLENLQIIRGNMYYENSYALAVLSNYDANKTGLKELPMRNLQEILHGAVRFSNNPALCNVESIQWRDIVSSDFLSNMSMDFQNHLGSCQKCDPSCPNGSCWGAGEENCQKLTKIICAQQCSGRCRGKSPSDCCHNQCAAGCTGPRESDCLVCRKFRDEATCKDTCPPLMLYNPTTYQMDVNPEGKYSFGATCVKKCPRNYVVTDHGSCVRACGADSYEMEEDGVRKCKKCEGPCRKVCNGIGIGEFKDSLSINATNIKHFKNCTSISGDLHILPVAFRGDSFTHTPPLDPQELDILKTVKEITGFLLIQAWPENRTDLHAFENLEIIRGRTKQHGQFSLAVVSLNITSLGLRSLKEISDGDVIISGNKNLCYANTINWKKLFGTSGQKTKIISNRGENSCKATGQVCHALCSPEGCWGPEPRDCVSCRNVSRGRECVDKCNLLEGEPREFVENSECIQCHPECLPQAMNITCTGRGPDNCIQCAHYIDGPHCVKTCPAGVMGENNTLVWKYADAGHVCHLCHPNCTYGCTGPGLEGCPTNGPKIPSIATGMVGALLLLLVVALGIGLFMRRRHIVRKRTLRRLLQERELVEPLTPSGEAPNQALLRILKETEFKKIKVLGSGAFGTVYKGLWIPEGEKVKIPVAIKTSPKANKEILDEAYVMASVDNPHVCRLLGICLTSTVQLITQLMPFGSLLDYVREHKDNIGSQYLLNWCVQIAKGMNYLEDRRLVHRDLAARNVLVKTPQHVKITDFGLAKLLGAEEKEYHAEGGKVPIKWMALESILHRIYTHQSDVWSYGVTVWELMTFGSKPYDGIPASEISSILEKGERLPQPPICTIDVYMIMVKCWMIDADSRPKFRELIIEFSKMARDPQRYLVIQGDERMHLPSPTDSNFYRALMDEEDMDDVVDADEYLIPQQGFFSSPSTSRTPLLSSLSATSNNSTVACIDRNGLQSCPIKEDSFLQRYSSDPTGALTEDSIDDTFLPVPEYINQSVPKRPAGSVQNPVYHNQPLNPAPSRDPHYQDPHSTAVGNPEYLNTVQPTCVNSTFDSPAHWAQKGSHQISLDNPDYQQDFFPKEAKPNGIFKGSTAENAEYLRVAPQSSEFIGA
EGFR del19/T790M/C797S, sequence (P00533 with tags, fused parts or gaps DEL746-750/T790M/C797S): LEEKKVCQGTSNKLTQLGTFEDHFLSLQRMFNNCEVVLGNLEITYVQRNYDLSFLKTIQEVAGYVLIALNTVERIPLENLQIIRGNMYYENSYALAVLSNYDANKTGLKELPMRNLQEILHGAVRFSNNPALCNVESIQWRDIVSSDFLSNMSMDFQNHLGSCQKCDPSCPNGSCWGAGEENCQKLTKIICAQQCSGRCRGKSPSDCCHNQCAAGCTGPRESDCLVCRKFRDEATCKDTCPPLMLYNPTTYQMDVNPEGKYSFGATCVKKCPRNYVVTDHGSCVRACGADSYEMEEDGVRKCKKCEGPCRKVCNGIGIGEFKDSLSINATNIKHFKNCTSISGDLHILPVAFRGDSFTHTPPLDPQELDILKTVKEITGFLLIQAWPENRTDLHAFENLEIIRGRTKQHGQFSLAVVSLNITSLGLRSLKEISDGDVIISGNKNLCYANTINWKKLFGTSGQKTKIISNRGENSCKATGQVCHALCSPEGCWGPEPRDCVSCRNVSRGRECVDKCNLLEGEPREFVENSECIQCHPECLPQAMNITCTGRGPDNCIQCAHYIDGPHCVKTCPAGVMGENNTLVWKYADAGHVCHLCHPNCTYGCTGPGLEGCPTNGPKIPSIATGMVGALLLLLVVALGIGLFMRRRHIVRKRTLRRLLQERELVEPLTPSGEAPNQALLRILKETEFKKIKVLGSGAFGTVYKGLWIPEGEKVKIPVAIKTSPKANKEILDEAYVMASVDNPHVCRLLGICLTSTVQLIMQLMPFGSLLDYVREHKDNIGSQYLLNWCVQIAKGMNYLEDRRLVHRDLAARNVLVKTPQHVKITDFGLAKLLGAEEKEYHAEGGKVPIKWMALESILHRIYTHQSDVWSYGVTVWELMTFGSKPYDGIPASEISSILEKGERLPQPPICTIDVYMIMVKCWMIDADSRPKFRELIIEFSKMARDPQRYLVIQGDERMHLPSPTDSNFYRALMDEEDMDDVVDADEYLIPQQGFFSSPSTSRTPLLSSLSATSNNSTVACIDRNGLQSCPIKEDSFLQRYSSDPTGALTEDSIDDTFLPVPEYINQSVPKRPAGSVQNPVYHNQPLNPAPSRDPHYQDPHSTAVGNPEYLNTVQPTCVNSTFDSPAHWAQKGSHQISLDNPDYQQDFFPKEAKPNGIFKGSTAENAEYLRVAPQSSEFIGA

As to `CN(C)Cc1ccc(CNc2cc(Nc3ccnc(-c4cnn(S(=O)(=O)C5CC5)c4)n3)ncc2C(=O)C2CC2)cn1` [Example 19, Cyclopropyl(6-((2-(1-(cyclopropylsulfonyl)-1H-pyrazol-4-yl)pyrimidin-4-yl)amino)-4-(((6-((dimethylamino)methyl)pyridin-3-yl)methyl)amino)pyridin-3-yl)methanone], the IC50 in experiment [1] (setting [5]) came to 3.8 nM; in experiment [2] (setting [6]), 159 nM; in experiment [3] (setting [7]), 3.1 nM; in experiment [4] (setting [8]) it was 682 nM.
As to `CCCNc1cc(Nc2ccnc(-c3cnn(S(=O)(=O)C4CC4)c3)n2)ncc1C(C)=O` [Example 45, 1-(6-((2-(1-(Cyclopropylsulfonyl)-1H-pyrazol-4-yl)pyrimidin-4-yl)amino)-4-(propylamino)pyridin-3-yl)ethan-1-one], the IC50 in experiment [1] (setting [5]) was 3.1 nM; in experiment [2] (setting [6]) it was 205 nM; in experiment [3] (setting [7]), 0.9 nM; in experiment [4] (setting [8]) it was 751 nM.
Take `CN(C)CCNC1CCC(Nc2cc(Nc3ccnc(-c4cnn(S(=O)(=O)C5CC5)c4)n3)ncc2C(=O)C2CC2)CC1` (stereo not shown) [Example 53, Cyclopropyl(6-((2-(1-(cyclopropylsulfonyl)-1H-pyrazol-4-yl)pyrimidin-4-yl)amino)-4-((4-((2-(dimethylamino)ethyl)amino)cyclohexyl)amino)pyridin-3-yl)methanone]: the IC50 in experiment [1] (IC50 L858R/T790M/C797S (nM) 100 μM ATP, 100 μM ATP) amounted to 0.5 nM; in experiment [2] (IC50 del19/C797S (nM) 100 μM ATP, 100 μM ATP), 1.8 nM; in experiment [3] (IC50 del19/T790M/C797S (nM) 100 μM ATP, 100 μM ATP), 0.5 nM; in experiment [4] (IC50 WT (nM) 100 μM ATP, 100 μM ATP) it was 1900 nM.
Take `CN(C)C[C@H]1CC[C@H](CNc2cc(Nc3ccnc(-c4cnn(S(=O)(=O)C5CC5)c4)n3)ncc2C(=O)N2CC(F)(F)C2)CC1` [Example 82, (6-((2-(1-(Cyclopropylsulfonyl)-1H-pyrazol-4-yl)pyrimidin-4-yl)amino)-4-((((1r,4r)-4-((dimethylamino)methyl)cyclohexyl)methyl)amino)pyridin-3-yl)(3,3-difluoroazetidin-1-yl)methanone]: the IC50 in experiment [2] (setting [6]) is 24.6 nM; in experiment [3] (setting [7]), 2.8 nM; in experiment [4] (setting [8]), 76.2 nM.
`C[C@H](CCO)Nc1cc(Nc2ccnc(-c3cnn(S(=O)(=O)C4CC4)c3)n2)ncc1C(=O)C1CC1` [Example 7, (R)-Cyclopropyl(6-((2-(1-(cyclopropylsulfonyl)-1H-pyrazol-4-yl)pyrimidin-4-yl)amino)-4-((4-hydroxybutan-2-yl)amino)pyridin-3-yl)methanone]: the IC50 in experiment [1] (setting [5]) was 2.7 nM; in experiment [2] (setting [6]) it was 49.2 nM; in experiment [3] (setting [7]), 0.5 nM; in experiment [4] (setting [8]), 426 nM.
On to `CC(C)Nc1cc(Nc2ccnc(-c3cnn(S(=O)(=O)C4CC4)c3)n2)ncc1C(=O)NCC(F)F` [Example 78, 6-((2-(1-(Cyclopropylsulfonyl)-1H-pyrazol-4-yl)pyrimidin-4-yl)amino)-N-(2,2-difluoroethyl)-4-(isopropylamino)nicotinamide], for which the IC50 was 225 nM in experiment [2] (setting [6]), 14.9 nM in experiment [3] (setting [7]) and 1140 nM in experiment [4] (setting [8]).
`CC(NCC1CCC(CNc2cc(Nc3ccnc(-c4cnn(S(=O)(=O)C5CC5)c4)n3)ncc2C(=O)C2CC2)CC1)C(F)F` (stereo not shown) [Example 73, Cyclopropyl(6-((2-(1-(cyclopropylsulfonyl)-1H-pyrazol-4-yl)pyrimidin-4-yl)amino)-4-((((1r,4r)-4-(((1,1-difluoropropan-2-yl)amino)methyl)cyclohexyl)methyl)amino)pyridin-3-yl)methanone]: the IC50 came out at 3.1 nM in experiment [1] (setting [5]), 16.1 nM in experiment [2] (setting [6]), 17.4 nM in experiment [3] (setting [7]) and 691 nM in experiment [4] (setting [8]).
`O=C(c1cnc(Nc2ccnc(-c3cnn(S(=O)(=O)C4CC4)c3)n2)cc1NCCCC(F)F)C1CC1` [Example 5, Cyclopropyl(6-((2-(1-(cyclopropylsulfonyl)-1H-pyrazol-4-yl)pyrimidin-4-yl)amino)-4-((4,4-difluorobutyl)amino)pyridin-3-yl)methanone]: the IC50 came out at 18 nM in experiment [1] (setting [5]), 132 nM in experiment [2] (setting [6]), 1.8 nM in experiment [3] (setting [7]) and 2970 nM in experiment [4] (setting [8]).
In the case of `CC(O)C(C)(C)Nc1cc(Nc2ccnc(-c3cnn(S(=O)(=O)C4CC4)c3)n2)ncc1C(=O)C1CC1` (stereo not shown) [Example 12, Cyclopropyl(6-((2-(1-(cyclopropylsulfonyl)-1H-pyrazol-4-yl)pyrimidin-4-yl)amino)-4-((3-hydroxy-2-methylbutan-2-yl)amino)pyridin-3-yl)methanone], the IC50 in experiment [1] (setting [5]) came to 0.6 nM; in experiment [2] (setting [6]), 58.2 nM; in experiment [3] (setting [7]), 0.4 nM; in experiment [4] (setting [8]) it was 228 nM.
For `C[C@@H](O)CCNc1cc(Nc2ccnc(-c3cnn(S(=O)(=O)C4CC4)c3)n2)ncc1C(=O)C1CC1` [Example 11, (R)-Cyclopropyl(6-((2-(1-(cyclopropylsulfonyl)-1H-pyrazol-4-yl)pyrimidin-4-yl)amino)-4-((3-hydroxybutyl)amino)pyridin-3-yl)methanone], the IC50 in experiment [1] (setting [5]) amounted to 2.3 nM; in experiment [2] (setting [6]) it was 58.9 nM; in experiment [3] (setting [7]), 0.4 nM; in experiment [4] (setting [8]), 188 nM.
As to `O=C(c1cnc(Nc2ccnc(-c3cnn(S(=O)(=O)C4CC4)c3)n2)cc1NCC1CCN(CC2CC2)CC1)C1CC1` [Example 18, Cyclopropyl(4-(((1-(cyclopropylmethyl)piperidin-4-yl)methyl)amino)-6-((2-(1-(cyclopropylsulfonyl)-1H-pyrazol-4-yl)pyrimidin-4-yl)amino)pyridin-3-yl)methanone], the IC50 in experiment [1] (setting [5]) amounted to 17.2 nM; in experiment [2] (setting [6]), 1 nM; in experiment [3] (setting [7]) it was 13.5 nM.
In the case of `O=C(c1cnc(Nc2ccnc(-c3cnn(S(=O)(=O)C4CC4)c3)n2)cc1NC[C@H]1CC[C@H](Cn2cccn2)CC1)C1CC1` [Example 44, (4-((((1r,4r)-4-((1H-Pyrazol-1-yl)methyl)cyclohexyl)methyl)amino)-6-((2-(1-(cyclopropylsulfonyl)-1H-pyrazol-4-yl)pyrimidin-4-yl)amino)pyridin-3-yl)(cyclopropyl)methanone], the IC50 worked out at 242 nM in experiment [2] (setting [6]), 9 nM in experiment [3] (setting [7]) and 796 nM in experiment [4] (setting [8]).
`O=C(c1cnc(Nc2ccnc(-c3cnn(S(=O)(=O)C4CC4)c3)n2)cc1NCc1cnn(CCF)c1)C1CC1` [Example 17, Cyclopropyl(6-((2-(1-(cyclopropylsulfonyl)-1H-pyrazol-4-yl)pyrimidin-4-yl)amino)-4-(((1-(2-fluoroethyl)-1H-pyrazol-4-yl)methyl)amino)pyridin-3-yl)methanone]: the IC50 in experiment [1] (setting [5]) stood at 15.5 nM; in experiment [2] (setting [6]), 1 nM; in experiment [3] (setting [7]) it was 10.9 nM.
Take `O=C(c1cnc(Nc2ccnc(-c3cnn(S(=O)(=O)C4CC4)c3)n2)cc1NC1CC1)C1CC1` [Example 2, Cyclopropyl(4-(cyclopropylamino)-6-((2-(1-(cyclopropylsulfonyl)-1H-pyrazol-4-yl)pyrimidin-4-yl)amino)pyridin-3-yl)methanone]: the IC50 in experiment [2] (setting [6]) is 536 nM; in experiment [3] (setting [7]), 72 nM.
For the compound `CN(C)CC1CCC(CNc2cc(Nc3ccnc(-c4cnn(C5CCOC5)c4)n3)ncc2C(=O)C2CC2)CC1` (stereo not shown) [Example 62, Cyclopropyl(4-((((1r,4r)-4-((dimethylamino)methyl)cyclohexyl)methyl)amino)-6-((2-(1-(tetrahydrofuran-3-yl)-1H-pyrazol-4-yl)pyrimidin-4-yl)amino)pyridin-3-yl)methanone], the IC50 in experiment [1] (setting [5]) is 9.4 nM; in experiment [2] (setting [6]) it was 363 nM; in experiment [3] (setting [7]) it was 9.8 nM.
